Test results taken from article PMC4102782, “Dual Aurora A and JAK2 kinase blockade effectively suppresses malignant transformation” (Oncotarget, 2014).

Legend:
MDA-MB-468 cells [1] = assay: Anchorage-dependent proliferation, MTT assay, MDA-MB-468; format: cell-based; details: Homo sapiens, 48 h; for IC50: MDA-MB-468, MTT
Experimental: (§1) Cells were cultured in 96 well plates at a density of 2,000 cells/ well. The cells with siRNA transfection or with the inhibitor treatment were monitored for viability using MTT at indicated time points. At the given time points, MTT reagent was added to the media and allowed to incubate for 3 h at 37° C in a humidified incubator at 5% CO2. The medium was then removed and MTT crystals were dissolved in DMSO (Sigma). Cell viability was quantified by reading the plates at an absorbance of 540 nm on a μQuant microplate reader using KC4 data analysis software (Bio-Tek Instruments). The 540 nm absorbance of vehicle-treated wells was used to define 100% proliferation. Each condition was performed in replicates of six wells.

HT29 cells = assay: Anchorage-dependent proliferation, MTT assay, HT29; format: cell-based; details: Homo sapiens
Experimental: as §1

MDA-MB-468 cells [2] = assay: Soft agar anchorage-independent growth, MDA-MB-468; format: cell-based, human
Experimental: For analysis of anchorage-independent growth, log-phase growing cells were trypsinized, and triplicates of 1.5 × 10^3 cells per well were seeded in regular growth medium containing 0.3% agar (Sigma) and drug added at the indicated concentrations, as previously described. The cells were allowed to incubate at 37° C for 3 weeks and fed once per week with the inhibitor before 1 mg/ml MTT (Sigma) solution was added overnight to facilitate colony counting. Colonies were scored and counted according to size, as previously described.

HT-29 cells [3] = assay: Soft agar anchorage-independent growth, HT-29; format: cell-based, human; details: HT-29, Alisertib 2 μM
Experimental: The cells were allowed to incubate at 37° C for 3 weeks and fed once per week with the inhibitor before 1 mg/ml MTT (Sigma) solution was added overnight to facilitate colony counting. Colonies were scored and counted according to size, as previously described.

MDA-MB-468 cells [4] = assay: Matrigel Transwell invasion, MDA-MB-468; format: cell-based, human
Experimental: Cells were transfected with Aurora A and JAK2 for 48 h or with siRNA for 72 h or treated with the compounds for 24 h and then were trypsinized and resuspended in serum-free medium and placed in the upper chamber of the Matrigel-coated (0.8 μg/μL, BD Biosciences, San Diego, CA) Transwell insert (from 2 to 5 × 10^4 cells/well) and with 0.5% DMSO or the compounds at the indicated dose. Medium containing 10%FBS was placed in the lower chamber. […] Invading cells in the membrane were fixed with 100% methanol and stained with fresh prepared 0.2% crystal violet. Noninvasive cells in the upper chamber were removed by wiping the upper side of the membrane with a cotton swab, and cells located on the underside of the filter were observed and photographed under Olympus stereo microscope. The number of invading cells was counted using Image-Pro analysis software.

HT-29 cells [5] = assay: Matrigel Transwell invasion, HT-29; format: cell-based, human; details: HT-29, Alisertib 4 μM
Excerpt: Medium containing 10%FBS was placed in the lower chamber. […] Invading cells in the membrane were fixed with 100% methanol and stained with fresh prepared 0.2% crystal violet. Noninvasive cells in the upper chamber were removed by wiping the upper side of the membrane with a cotton swab, and cells located on the underside of the filter were observed and photographed under Olympus stereo microscope. The number of invading cells was counted using Image-Pro analysis software.

[6] = tested on: Aurora A auto-phosphorylation (Thr-288); assay: Western blot, Aurora A auto-phosphorylation in nocodazole-synchronized MDA-MB-468 cells; format: cell-based, human; details: MDA-MB-468, nocodazole-synchronized, 2 h
Experimental: (§2) Cells were plated in 6 cm dishes at a density of 2 × 10^5 cells/dish. Aurora A activity was determined by measuring autophosphorylation of Aurora A on Thr288 in cells that were synchronized by treatment with nocodazole (100 ng/mL) for 20 h prior to the treatment with Aurora inhibitors, whereas Aurora B activity was determined by measuring phosphorylation of histone H3 on Ser-10 (p-HH3). […] Cells were harvested after 2 h of treatment and processed for SDS−PAGE and Western blotting.
(§3) Cells were harvested from experiments of ectopic expression or knockdown using siRNA or the treatment with the inhibitors, washed, and then lysed using lysis buffer as previously described. The protein concentration of the lysate was measured, and the lysate was mixed with gel electrophoresis loading buffer, boiled for 5 minutes, separated by SDS-PAGE, and transferred to nitrocellulose membranes.

[7] = tested on: P-Histone H3 (Ser-10), Aurora B substrate; assay: Western blot, phosphorylation of Histone H3 in MDA-MB-468 cells; format: cell-based, human; details: for effect on phosphorylation of Histone H3 (Ser-10): MDA-MB-468, increasing concentrations, 2 h
Experimental: as §2, §3

[8] = tested on: P-STAT3 (Y705), JAK2 substrate; assay: Western blot, phosphorylation of STAT3 in MDA-MB-468 cells; format: cell-based, human
Experimental: as §2, §3

P-Histone H3 = assay: Western blot, phosphorylation of Histone H3 in HT-29 cells; format: cell-based, human; details: HT-29, Alisertib 2 μM
Experimental: as §2, §3

P-STAT3 = assay: Western blot, phosphorylation of STAT3 in HT-29 cells; format: cell-based, human; details: HT-29, Alisertib 2 μM
Experimental: as §2, §3

[9] = tested on: PARP cleavage and Caspase 3 activation in MDA-MB-468 cells; assay: Apoptosis by Western blot of PARP cleavage and Caspase 3 activation, MDA-MB-468; format: cell-based, human; details: MDA-MB-468, single agent, low concentration, e.g. Alisertib 0.03 μM
Experimental: Cells were harvested from experiments of ectopic expression or knockdown using siRNA or the treatment with the inhibitors, washed, and then lysed using lysis buffer as previously described. The protein concentration of the lysate was measured, and the lysate was mixed with gel electrophoresis loading buffer, boiled for 5 minutes, separated by SDS-PAGE, and transferred to nitrocellulose membranes. […] To evaluate the effect of inhibitors on cell cycle progression, cells were treated with inhibitors at indicated dose or DMSO control and then harvested, fixed with 70% ethanol pretreated with RNase, and stained with propidium iodide (PI) (Sigma) as previously described for flow cytometry analysis. For the detection of apoptosis, cells were cultured for 24 h in medium with inhibitors at indicated dose or DMSO control and harvested for SDS-PAGE and Western blotting. The siRNA or drug treatment-induced apoptosis was detected by Western blot analysis of the cleavage of PARP and caspase-3.

FLT3 = tested on: FLT3; set-up: method as in PMID 15126317; details: cited from earlier work
Aurora A = target: T1, Aurora A (Homo sapiens, UniProt O14965); assay: HotSpot kinase assay (Reaction Biology), Aurora A; format: biochemical; details: in vitro, HotSpot method
T1 construct: purchased Reaction Biology Inc
T1 sequence (O14965 1-403): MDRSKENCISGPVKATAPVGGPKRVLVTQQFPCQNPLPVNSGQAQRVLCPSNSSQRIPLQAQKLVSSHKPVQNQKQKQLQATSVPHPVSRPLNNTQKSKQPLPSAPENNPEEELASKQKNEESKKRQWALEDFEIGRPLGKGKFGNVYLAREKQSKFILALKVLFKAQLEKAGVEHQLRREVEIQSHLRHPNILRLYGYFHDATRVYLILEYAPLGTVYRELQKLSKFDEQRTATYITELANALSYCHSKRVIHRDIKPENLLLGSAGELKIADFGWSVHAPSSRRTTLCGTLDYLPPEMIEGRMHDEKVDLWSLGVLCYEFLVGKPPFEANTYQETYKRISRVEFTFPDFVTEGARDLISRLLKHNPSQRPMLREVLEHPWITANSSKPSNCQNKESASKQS

Aurora B = target: T2, Aurora B (Homo sapiens, UniProt Q96GD4); assay: HotSpot kinase assay (Reaction Biology), Aurora B; format: biochemical; details: in vitro, HotSpot method
T2 construct: purchased Reaction Biology Inc

JAK2 = target: T3, JAK2 (Homo sapiens, UniProt O60674); assay: HotSpot kinase assay (Reaction Biology), JAK2; format: biochemical; details: in vitro, HotSpot method
T3 construct: purchased Reaction Biology Inc

[10] = tested on: MDA-MB-468 tumor xenografts; assay: MDA-MB-468 tumor xenografts in nude mice; format: in vivo; details: 50 mpk i.p. daily for 14 days
Experimental: (§4) Female nude mice (Charles River Laboratories, Wilmington, MA) were maintained and treated in accordance with the Institutional Animal Care and Use Committee procedures and guidelines. Exponentially growing MDA-MB-468 cells were harvested via trypsinization, pelleted at 400 g for 5 min. Cell pellets were re-suspended in DPBS (Invitrogen) at 10 x10^6 cells per 200 μl, and injected into right flank of mice. The tumor xenografts were monitored with an electronic caliper measurements and tumor volume (V) was calculated using the formula V= (W × L^2)/2, where width is the largest diameter and length is the smallest diameter. When the tumors reached ~ 250 mm^3, the animals were randomized and treatment schedules were implemented. Treatments consisted of intraperitoneal (i.p.) injections of vehicle control (50% polyethylene glycol (PG) + 15% 2-hydroxypropyl-beta-cyclodextrin (HPCD) (n=5) or AJI-100 (n=6) at 50 mg/kg, everyday for 14 days.

[11] = Mouse weights during xenograft study; format: in vivo, nude mice; details: 50 mpk i.p. daily, over the 14-day treatment period; vehicle 3.33 %
Experimental: as §4

[12] = Homo sapiens, MDA-MB-468, Alisertib 0.5 μM

T2 sequence (Q96GD4 whole entry): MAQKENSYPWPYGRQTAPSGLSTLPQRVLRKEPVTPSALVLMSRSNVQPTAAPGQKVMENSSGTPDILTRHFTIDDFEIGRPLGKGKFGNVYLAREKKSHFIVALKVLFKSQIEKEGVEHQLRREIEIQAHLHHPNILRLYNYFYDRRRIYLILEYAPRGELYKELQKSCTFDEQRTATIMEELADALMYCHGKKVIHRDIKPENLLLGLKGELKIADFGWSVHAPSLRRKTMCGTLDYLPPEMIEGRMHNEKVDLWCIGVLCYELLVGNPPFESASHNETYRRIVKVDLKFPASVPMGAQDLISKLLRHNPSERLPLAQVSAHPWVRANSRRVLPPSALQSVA
T3 sequence (O60674 whole entry): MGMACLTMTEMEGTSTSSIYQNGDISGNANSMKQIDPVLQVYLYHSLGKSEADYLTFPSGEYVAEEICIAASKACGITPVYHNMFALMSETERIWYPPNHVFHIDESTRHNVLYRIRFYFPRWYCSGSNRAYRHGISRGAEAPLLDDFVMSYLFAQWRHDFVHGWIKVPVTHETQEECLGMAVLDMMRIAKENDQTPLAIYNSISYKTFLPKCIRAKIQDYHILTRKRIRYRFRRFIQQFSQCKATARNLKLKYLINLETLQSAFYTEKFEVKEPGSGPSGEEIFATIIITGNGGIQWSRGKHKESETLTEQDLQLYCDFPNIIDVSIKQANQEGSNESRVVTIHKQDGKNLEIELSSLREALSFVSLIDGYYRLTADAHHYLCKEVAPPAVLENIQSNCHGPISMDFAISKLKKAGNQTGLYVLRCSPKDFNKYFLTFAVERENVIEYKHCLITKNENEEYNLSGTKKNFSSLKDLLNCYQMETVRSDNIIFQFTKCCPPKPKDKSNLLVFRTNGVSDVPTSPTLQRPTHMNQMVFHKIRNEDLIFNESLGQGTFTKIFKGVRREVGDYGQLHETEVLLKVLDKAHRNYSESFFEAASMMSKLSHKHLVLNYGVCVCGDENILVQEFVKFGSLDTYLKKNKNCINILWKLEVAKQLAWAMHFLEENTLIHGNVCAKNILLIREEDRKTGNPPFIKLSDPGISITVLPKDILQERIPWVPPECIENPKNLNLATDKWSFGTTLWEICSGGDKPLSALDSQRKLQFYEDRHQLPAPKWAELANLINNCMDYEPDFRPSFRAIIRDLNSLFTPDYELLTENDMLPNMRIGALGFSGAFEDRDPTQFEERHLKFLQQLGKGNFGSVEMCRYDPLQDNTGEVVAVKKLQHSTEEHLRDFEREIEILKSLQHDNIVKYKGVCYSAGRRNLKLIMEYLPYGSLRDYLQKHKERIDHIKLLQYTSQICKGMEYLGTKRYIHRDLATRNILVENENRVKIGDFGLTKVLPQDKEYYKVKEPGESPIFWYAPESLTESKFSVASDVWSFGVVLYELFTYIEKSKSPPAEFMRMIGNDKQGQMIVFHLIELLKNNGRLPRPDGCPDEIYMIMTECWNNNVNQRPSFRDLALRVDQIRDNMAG

COc1cc(Nc2ncc3c(n2)-c2ccc(Cl)cc2C(c2c(F)cccc2OC)=NC3)ccc1C(=O)O [Alisertib]
inhibition at 0.05 µM (MDA-MB-468 cells [1]; MDA-MB-468, Alisertib 0.05 μM): 25.4% | IC50 (MDA-MB-468 cells [1]): 70 nM | inhibition at 0.05 µM (HT29 cells; HT-29, 48 h, read-out: inhibition of proliferation): 5% | IC50 (HT29 cells; HT-29, HT29, MTT, 48 h): 2000 nM | inhibition at 0.5 µM (MDA-MB-468 cells [2]; [12]): 49% | soft agar colonies (MDA-MB-468 cells [2]; MDA-MB-468, Alisertib 0.5 μM, vehicle 131): 67 colonies | soft agar colonies (HT-29 cells [3]; vehicle 129): 56 colonies | inhibition at 2 µM (HT-29 cells [3]; Homo sapiens, read-out: inhibition of soft agar colonies): 56.6% | inhibition at 0.5 µM (MDA-MB-468 cells [4]; [12]): 24.5% | invaded cells (MDA-MB-468 cells [4]; MDA-MB-468, Alisertib 0.5 μM, vehicle 344): 260 cells | invaded cells (HT-29 cells [5]; vehicle 1066): 384 cells | inhibition at 4 µM (HT-29 cells [5]; Homo sapiens): 64% | effect on auto-phosphorylation of Aurora A [6]: highly effective at inhibiting | effect on P-Histone H3 ([7]; MDA-MB-468, Alisertib 0.5 μM): inhibited P-Histone H3 | effect on phosphorylation of Histone H3 (Ser-10) [7]: highly effective at inhibiting | effect on P-STAT3 ([8]; MDA-MB-468, Alisertib 0.5 μM): not P-STAT3 | effect on P-Histone H3 (P-Histone H3): inhibited P-Histone H3 | effect on P-STAT3 (P-STAT3): not P-STAT3 | PARP cleavage [9]: neither Alisertib nor Ruxolitinib induced PARP cleavage

NC(=O)c1ccc(Nc2ncc(F)c(Nc3ccccc3)n2)cc1 [AJI-100]
IC50 (Aurora A): 5.4 nM | IC50 (Aurora B): 14 nM | IC50 (JAK2): 51 nM | IC50 (MDA-MB-468 cells [1]): 3600 nM | colony formation in soft agar (MDA-MB-468 cells [2]; MDA-MB-468, increasing concentrations): inhibited colony formation | inhibition at 5 µM (MDA-MB-468 cells [4]; Homo sapiens, MDA-MB-468, 5 μM, 48 hr): 41.1% | inhibition at 5 µM (MDA-MB-468 cells [4]; Homo sapiens, MDA-MB-468, 5 μM, 72 hr): 89.8% | invaded cells (MDA-MB-468 cells [4]; MDA-MB-468, 5 μM, 48 hr, vehicle 723): 426 cells | invaded cells (MDA-MB-468 cells [4]; MDA-MB-468, 5 μM, 72 hr, vehicle 1020): 104 cells | effect on phosphorylation of Histone H3 (Ser-10) [7]: decreased | effect on phosphorylation of STAT3 (Y705) ([8]; MDA-MB-468, increasing concentrations, 2 h): decreased | tumor volume after 14 day treatment, representative mouse ([10]; regressed from 222, vehicle grew 211 to 357): 158 mm3 | average % change in tumor volume (regression) ([10]; vehicle grew by 40 %): 9% | increase in mouse weights [11]: 0.04%
